Source: patent US20250214979A1, “COMPOUNDS FOR TREATING PSYCHOSTIMULANT MISUSE” (University of Florida Research Foundation, Incorporated, priority 2022, published 2025)
Like-named read-outs stand apart in the source and are kept apart here.

How the values were obtained:
dopamine transporter (h) = target: T1, dopamine transporter (h) (Homo sapiens, UniProt Q01959); assay: dopamine transporter (h) antagonist radioligand binding assay ([3H]BTCP); conditions: 1.00E−06 M
T1 construct: expressed in transfected cells; host or cells: CHO cells
Description: [The source words this procedure for another target and reports this target under the same test.] (§1) 12 compounds in binding assays (either sigma 1 or sigma 2 receptors) at 1.0×10^−6 M. Compound binding was calculated as a % inhibition of the binding of a ligand specific for each target.
(§2) The results are expressed as a percent of control specific binding: [(measured specific binding)/(control specific binding)]*100 and as a percent inhibition of control specific binding: 100−{[(measured specific binding)/(control specific binding)]*100}, obtained in the presence of the test compounds.
(§3) The IC50 values (concentration causing a half-maximal inhibition of control specific binding) and Hill coefficients (nH) were determined by non-linear regression analysis of the competition curves generated with mean replicate values using Hill equation curve fitting: Y={D+[(A−D)/(1+(C/C50)^nH)]} (where Y=specific binding, A=left asymptote of the curve, D=right asymptote of the curve, C=compound concentration, C50=IC50, and nH=slope factor). This analysis was performed using software developed at Cerep (Hill software) and validated by comparison with data generated by the commercial software SigmaPlot® 4.0 for Windows® (© 1997 by SPSS Inc.). The inhibition constants (Ki) were calculated using the Cheng Prusoff equation: Ki=(IC50)/(1+L/KD) (where L=concentration of ligand in the assay, and KD=affinity of the ligand for the receptor).

sigma 1 (h) = target: T2, sigma 1 (h) (Homo sapiens, UniProt Q99720); assay: sigma 1 (h) agonist radioligand binding assay ([3H](+)pentazocine); conditions: Sigma 1 Receptor, 1.00E−06 M
T2 construct: endogenous; endogenous in cells; host or cells: Jurkat cells
Description: as §1, §2, §3

sigma 2 (h) = target: T3, sigma 2 (h) (Homo sapiens, UniProt Q5BJF2); assay: sigma 2 (h) agonist radioligand binding assay ([3H]DTG); conditions: Sigma 2 Receptor, 1.00E−06 M
T3 construct: endogenous; endogenous in cells; host or cells: Jurkat cells
Description: as §1, §2, §3

[1] = 1st, read-out: % Inhibition of Control Specific Binding, 1st
[2] = 2nd, read-out: % Inhibition of Control Specific Binding, 2nd
[3] = read-out: % Inhibition of Control Specific Binding, 3rd

T3 sequence (Q5BJF2 whole entry): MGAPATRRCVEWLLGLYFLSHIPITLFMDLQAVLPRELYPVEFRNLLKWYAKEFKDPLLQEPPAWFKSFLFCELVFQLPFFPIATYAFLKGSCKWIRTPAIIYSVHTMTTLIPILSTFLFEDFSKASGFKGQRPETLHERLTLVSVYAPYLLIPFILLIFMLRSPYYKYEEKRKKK
T2 sequence (Q99720 whole entry): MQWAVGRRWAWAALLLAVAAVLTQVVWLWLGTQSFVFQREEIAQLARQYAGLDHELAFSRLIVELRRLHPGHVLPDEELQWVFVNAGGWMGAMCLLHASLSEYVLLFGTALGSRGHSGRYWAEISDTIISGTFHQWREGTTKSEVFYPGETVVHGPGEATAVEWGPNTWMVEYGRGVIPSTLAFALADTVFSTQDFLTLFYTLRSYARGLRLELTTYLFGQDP
T1 sequence (Q01959 whole entry): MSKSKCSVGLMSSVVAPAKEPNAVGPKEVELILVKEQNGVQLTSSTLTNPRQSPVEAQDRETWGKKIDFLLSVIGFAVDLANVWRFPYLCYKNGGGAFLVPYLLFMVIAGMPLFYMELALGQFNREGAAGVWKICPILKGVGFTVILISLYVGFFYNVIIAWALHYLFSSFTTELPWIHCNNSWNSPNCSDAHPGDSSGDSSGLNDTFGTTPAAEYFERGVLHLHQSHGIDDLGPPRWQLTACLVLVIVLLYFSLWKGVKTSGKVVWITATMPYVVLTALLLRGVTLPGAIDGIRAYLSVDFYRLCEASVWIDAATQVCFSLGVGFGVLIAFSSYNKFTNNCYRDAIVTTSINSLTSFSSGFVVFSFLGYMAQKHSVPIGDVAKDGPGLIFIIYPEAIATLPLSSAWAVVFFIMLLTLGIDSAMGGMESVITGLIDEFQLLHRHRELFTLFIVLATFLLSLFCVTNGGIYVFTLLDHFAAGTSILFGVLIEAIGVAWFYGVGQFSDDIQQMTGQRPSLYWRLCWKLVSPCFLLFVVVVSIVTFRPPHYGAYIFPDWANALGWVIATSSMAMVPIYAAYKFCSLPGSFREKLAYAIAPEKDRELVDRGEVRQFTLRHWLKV

SMILES | inhibition at 1 µM (dopamine transporter (h); [1]) [%] | inhibition at 1 µM (dopamine transporter (h); [2]) [%] | inhibition at 1 µM (dopamine transporter (h); [3]) [%] | inhibition at 1 µM (sigma 1 (h); [1]) [%] | inhibition at 1 µM (sigma 1 (h); [2]) [%] | inhibition at 1 µM (sigma 1 (h); [3]) [%] | inhibition at 1 µM (sigma 2 (h); [1]) [%] | inhibition at 1 µM (sigma 2 (h); [2]) [%] | inhibition at 1 µM (sigma 2 (h); [3]) [%]
Cn1c(=O)n(CCCCN2CCC3(CC2)OCc2ccccc23)c2ccccc21 [CM699, reference compound] | 18.6 | 23.2 | 20.9 | 95.6 | 94 | 94.8 | 88 | 95.9 | 92
O=C1CCCc2ccccc2N1CCCCN1CCN(c2cccc(Cl)c2)CC1 [SMB107, 1-(4-(4-(3-Chlorophenyl)piperazin-1-yl)butyl)-1,3,4,5-tetrahydro-2H-benzo[b]azepin-2-one] | 24.6 | 24.4 | 24.5 | 96.7 | 97.6 | 97.1 | 104 | 98.7 | 101
O=C1COCc2ccccc2N1CCCCN1CCN(c2cccc(Cl)c2)CC1 [SMB108, 1-(4-(4-(3-Chlorophenyl)piperazin-1-yl)butyl)-1,5-dihydrobenzo[e][1,4]oxazepin-2(3H)-one] | 28.3 | 25.9 | 27.1 | 93.8 | 95.4 | 94.6 | 95 | 99.8 | 97.4
O=C1COCc2ccccc2N1CCCCN1CCC2(CC1)OCc1ccccc12 [STG135, 1-(4-(3H-spiro[isobenzofuran-1,4′-piperidin]-1′-yl)butyl)-1,5-dihydrobenzo[e][1,4]oxazepin-2(3H)-one] | 6 | 3.5 | 4.8 | 97.9 | 94.5 | 96.2 | 106 | 84.4 | 95.2
O=C1CCCc2ccccc2N1CCCCN1CCC2(CC1)OCc1ccccc12 [STG136, 1-(4-(3H-spiro[isobenzofuran-1,4′-piperidin]-1′-yl)butyl)-1,3,4,5-tetrahydro-2H-benzo[b]azepin-2-one] | 7.9 | 11.4 | 9.7 | 98.8 | 98.4 | 98.6 | 90.3 | 100 | 95.3
O=C1CCCc2ccccc2N1CCCCN1CCN(c2ccccc2Cl)CC1 [STG158] | -5.6 | -2.8 | -4.2 | 95.7 | 93.8 | 94.7 | 93.2 | 100 | 96.7
O=C1CSCc2ccccc2N1CCCCN1CCC2(CC1)OCc1ccccc12 [STG187] | 12.9 | 13.1 | 13 | 93.6 | 98.9 | 96.3 | 96.5 | 108 | 102
O=C1CCCc2ccccc2N1CCCCN1CCN(c2ccc(Cl)cc2)CC1 [STG188] | 26.5 | 23.2 | 24.8 | 98.8 | 99.2 | 99 | 82.9 | 85.9 | 84.4
O=C1COCc2ccccc2N1CCCCN1CCN(c2ccc(Cl)cc2)CC1 [STG189] | 8.6 | 5.1 | 6.8 | 92.8 | 93.6 | 93.2 | 82.2 | 78.2 | 80.2
O=C1CSCc2ccccc2N1CCCCN1CCN(c2ccc(Cl)cc2)CC1 [STG190] | 9.2 | 14.8 | 12 | 101 | 101 | 101 | 96.4 | 95.5 | 95.9
O=C1CSCc2ccccc2N1CCCCN1CCN(c2cccc(Cl)c2)CC1 [STG191] | 21.8 | 27.6 | 24.7 | 98.6 | 98.5 | 98.6 | 86.2 | 102 | 94.4
O=C1CSCc2ccccc2N1CCCCN1CCN(c2ccccc2Cl)CC1 [STG192] | 12.6 | 4.3 | 8.5 | 53.5 | 53.2 | 53.3 | 56.6 | 43.4 | 50
